Test results from patent US4223031A, “Azolopyrimidinones” (priority 1978, dated 1980).
Like-named read-outs stand apart in the source and are kept apart here.

Legend:
[1] = system: passive cutaneous anaphylaxis reaction (PCA); assay: passive cutaneous anaphylaxis reaction (PCA) in the rat; format: in vivo; conditions: for PCA Response, percent inhibition at the dose specified / ED50: rat; for ED50: read-out: PCA Response, ED 50; for antiallergic activity: rat PCA, result in words
Method: Twelve days after injection, the serum is collected and the antibody titer is determined. The sera which contain sufficient antibody to cause a 10 mm. spot in the dorsal skin of the rat in the PCA test after a 10-fold dilution are pooled. […] The selected reaginic anti-sera are stored frozen until use. For carrying out the test, groups of 5 to 10 male Sprague-Dawley (Carworth Farms) rats, each rat weighing 100-150 g., are used. Forty-eight hours prior to the test, the animals are passively sensitized by intradermal injection of 0.1 ml. of the above diluted antiserum at various locations on the shaved skin of the back. A dilution of antiserum is used so that a spot following challenge of 20-25 mm. in diameter is obtained. Challenge consists of an intravenous injection of 25 mg./kg. of body weight of egg albumin and a like amount of Evan's blue dye in saline. […] A latent period of 48 hrs. is allowed before the animals are treated with the test drug administered by either intraperitoneal or intravenous injection or orally by gavage. Challenge as described above is given 15 min. subsequent to treatment with the test drug. The response to the antigen challenge in the sensitized localities on the skin is an increased capillary permeability and leakage of the blue dye into the area surrounding the sensitized site. The PCA response is scored by measuring the mean spot diameter on the excised and reversed skin 20-30 min. after challenge. In each experiment a group of control animals receiving no drug is employed. The percent inhibition of the PCA is calculated by determining the mean diameters of the spots in the control and treated animals and computing the difference between the squares of the mean diameters of the control animals and the treated animals and expressing this difference as a percentage of the square of the mean diameter of the control animals. Results are expressed as percent inhibition. […] In other modifications, various time intervals are allowed between drug treatment and challenge to ascertain the duration of drug effect.

guinea pig trachea = assay: relaxation of the spontaneous tonus of the isolated guinea pig trachea (tracheal spiral) in vitro; conditions: for relaxation of the spontaneous tonus of the guinea pig trachea in vitro: guinea pig trachea / tracheal spiral, result in words
Method: The new compounds of Formulas III and IV are also considered part of the present invention since they are useful as intermediates for the production of the substances of Formula I. Some of the substances of Formulas III and IV also have biological utility in addition to their utility as intermediates. […] It is 13.2 times as potent as theophylline in relaxing the spontaneous tonus of the isolated guinea pig tracheal spiral. […] In both instances, the drug was administered orally.

in vivo = conditions: po, rat, treated orally, read-out: approximate LD50

| Structure (SMILES) | relaxation of the spontaneous tonus of the guinea pig trachea in vitro (guinea pig trachea) | ED50 ([1]; po, p.o.) [mg/kg] | also measured |
| --- | --- | --- | --- |
| Cc1cc2sc3ncc(-c4nnn[nH]4)c(=O)n3c2cc1C [Example 32, 7,8-Dimethyl-3-(1H-tetrazol-5-yl)-4H-pyrimido[2,1-b]benzothiazol-4-one] | cause relaxation | – | PCA Response, percent inhibition at the dose specified ([1]; 25 mg/kg, p.o.): 34.9% |
| N=c1c(-c2nnn[nH]2)cnc2[nH]cnn12 [Example 15, 3,7-Dihydro-6-(1H-tetrazol-5-yl)-s-triazolo-[1,5-a]pyrimidin-7-imine] | inactive | – | PCA Response, percent inhibition at the dose specified ([1]; 10 mg/kg, p.o.): 36.1% |
| Cl.N=c1c(-c2nnn[nH]2)cnc2sc3ccccc3n12 [Example 23, 3-(1H-Tetrazol-5-yl)-4H-pyrimido[2,1-b]-benzothiazol-4-imine Hydrochloride] | cause relaxation | 2.9 | – |
| Cc1csc(NC=C(C#N)C#N)n1 [Example 5, 2-[[(4-methylthiazol-2-yl)amino]methylene]propanedinitrile] | substantial tracheal relaxant action | – | potency relative to theophylline in relaxing the spontaneous tonus of the isolated guinea pig tracheal spiral (guinea pig trachea; isolated guinea pig tracheal spiral): 13.2 times as potent as theophylline |
| Cc1cc(C)c2sc3ncc(-c4nnn[nH]4)c(=O)n3c2c1 [Example 25, 7,9-Dimethyl-3-(1H-tetrazol-5-yl)-4H-pyrimido[2,1-b]benzothiazol-4-one] | cause relaxation | – | – |
| COc1ccc2c(c1)sc1ncc(-c3nnn[nH]3)c(=O)n12 [Example 31, 8-Methoxy-3-(1H-tetrazol-5-yl)-4H-pyrimido-[2,1-b]benzothiazol-4-one] | cause relaxation | 1.88 | – |
| O=c1c(-c2nnn[nH]2)cnc2sccn12 [Example 33, 6-(1H-Tetrazol-5-yl)-5H-thiazolo[3,2-a]-pyrimidin-5-one] | – | – | PCA Response, percent inhibition at the dose specified ([1]; 10 mg/kg, p.o.): 57% |
| O=c1c(-c2nnn[nH]2)cnc2sc3ccccc3n12 [Example 24, 3-(1H-Tetrazol-5-yl)-4H-pyrimido[2,1-b]-benzothiazol-4-one] | cause relaxation | 0.064 | LD50 (in vivo): 2000 to 5000 mg/kg; ED50 ([1]; iv, i.v.): 0.0049 mg/kg |
| Cc1csc2ncc(-c3nnn[nH]3)c(=O)n12 [Example 28, 3-Methyl-6-(1H-tetrazol-5-yl)-5H thiazolo[3,2-a]pyrimidine-5-one] | cause relaxation | – | PCA Response, percent inhibition at the dose specified ([1]; 25 mg/kg, p.o.): 39% |
| N#CC(=CNc1nc2ccccc2s1)c1nnn[nH]1 [Example 14, N-[2-Cyano-2-(1H-tetrazol-5-yl)ethenyl]-benzothiazol-2-amine] | – | 32 | antiallergic activity [1]: antiallergic activity similar to those substances of Formula I |
| Cc1csc(NC=C(C#N)c2nnn[nH]2)n1 [Example 17, 3-[(4-Methylthiazol-2-yl)amino]-2-(1H-tetrazol-5-yl)-2-propenenitrile] | – | – | antiallergic activity [1]: antiallergic activity similar to those substances of Formula I; PCA Response, percent inhibition at the dose specified ([1]; 25 mg/kg, p.o.): 36.7% |
| N=c1c(-c2nnn[nH]2)cnc2sccn12 [Example 22, 6-(1H-Tetrazol-5-yl)-5H-thiazole[3,2-a]-pyrimidine-5-imine] | – | – | PCA Response, percent inhibition at the dose specified ([1]; 10 mg/kg, p.o.): 22.4% |
